In PMC314469, “Protein Interaction Networks by Proteome Peptide Scanning” (PLoS Biology, 2004):

System: Myo5 SH3 domain
Assay: SPOT analysis of cellulose-bound peptides (WISE), Myo5 SH3 domain (Dataset S4)
Type: binding, Saccharomyces cerevisiae
Conditions: for The normalized value in BLU units: Myo5 SH3 domain
[1] = SPOT analysis of cellulose-bound peptides probed with Myo5 SH3 domain, normalized value
[2] = SPOT analysis of membrane-bound peptides, normalized value (see methods)
[3] = SPOT analysis of cellulose-bound 14-mer yeast proteome peptides, normalized value, mean where the peptide was synthesized more than once
[4] = SPOT analysis of membrane-synthesized peptides probed with Myo5 SH3 domain, normalized value

## KFLIHNEPIDPNDR
[1]
  The normalized value in BLU units (SPOT analysis, Myo5 SH3): 121.7 BLU

## IRTYKVVPLGPKAG
[2]
  The normalized value in BLU units: 100.2 BLU

## EAGDFEQPKGPAGA
[1]
  The normalized value in BLU units (SPOT analysis, Myo5 SH3): 49.8 BLU

## DPSDKSLPQQPFHK
[2]
  The normalized value in BLU units: 191.9 BLU

## SKIKRSRPPPPPMD
[2]
  The normalized value in BLU units: 5408.9 BLU

## VPSAFTAPPVPTKK
[3]
  The normalized value in BLU units: 358.2 BLU

## ILIFLWIPDDPSKA
[1]
  The normalized value in BLU units (SPOT analysis, Myo5 SH3): 1371.6 BLU

## VPNRWATPLDPSIL
[1]
  The normalized value in BLU units (SPOT analysis, Myo5 SH3): 125.7 BLU

## TKRQRGEPSEPQQD
[2]
  The normalized value in BLU units: 27.7 BLU

## ILTLLKMPEVPNSV
[3]
  The normalized value in BLU units: 172.2 BLU

## QVYEKTIPLFPPEI
[4]
  The normalized value in BLU units (SPOT analysis, Myo5 SH3): 153.0 BLU

## LNLSKDAPVPPAPE
[2]
  The normalized value in BLU units: 161.0 BLU

## LLPTKLIPSIPGGK
[4]
  The normalized value in BLU units (SPOT analysis, Myo5 SH3): 172.0 BLU

## ISADKGFPLIPSGY
[4]
  The normalized value in BLU units (SPOT analysis, Myo5 SH3): 113.3 BLU

## SLTLKTLPRVPTDS
[4]
  The normalized value in BLU units (SPOT analysis, Myo5 SH3): 211.7 BLU

## EKELKEGPSSPASI
[2]
  The normalized value in BLU units: 208.1 BLU

## MTQPKKNPMEPKTD
[3]
  The normalized value in BLU units: 147.2 BLU

## ATVVKNCPGDPELF
[2]
  The normalized value in BLU units: 76.2 BLU

## SRVTRKRPREPKST
[3]
  The normalized value in BLU units: 829.0 BLU

## LAPKREAPKPPANT
[2]
  The normalized value in BLU units: 116079.9 BLU

## SAFPYVFPLPPWIP
[3]
  The normalized value in BLU units: 12966.5 BLU

## YPEKFQKPYNPLAM
[3]
  The normalized value in BLU units: 157.4 BLU

## VTDIKLTPTDPLVG
[4]
  The normalized value in BLU units (SPOT analysis, Myo5 SH3): 851.7 BLU

## GLIAHQGPQFPVMG
[3]
  The normalized value in BLU units: 238.5 BLU

## SPRHYNVPSSPIAP
[1]
  The normalized value in BLU units (SPOT analysis, Myo5 SH3): 232.7 BLU

## LLLPLLLPPLPSVK
[1]
  The normalized value in BLU units (SPOT analysis, Myo5 SH3): 6465.7 BLU

## SILRKSSPEEPFMS
[4]
  The normalized value in BLU units (SPOT analysis, Myo5 SH3): 144.2 BLU

## RFHVFCEPILPSVA
[3]
  The normalized value in BLU units: 158.0 BLU

## ENENKKLPPAPTVF
[4]
  The normalized value in BLU units (SPOT analysis, Myo5 SH3): 67.7 BLU

## IKYFKKFPKDPLAM
[2]
  The normalized value in BLU units: 237.4 BLU

## VKKEKKPPKIPKKV
[4]
  The normalized value in BLU units (SPOT analysis, Myo5 SH3): 534.4 BLU

## LLQSLRLPTTPTER
[3]
  The normalized value in BLU units: 124.6 BLU

## ADDLKYIPPIPQDF
[2]
  The normalized value in BLU units: 86.7 BLU

## PLNQLPNPAMPLLH
[1]
  The normalized value in BLU units (SPOT analysis, Myo5 SH3): 104.2 BLU

## AVLIRADPLNPKVV
[4]
  The normalized value in BLU units (SPOT analysis, Myo5 SH3): 102.0 BLU

## KPSGYYGPNSPLKL
[3]
  The normalized value in BLU units: 159.2 BLU

## MSWCKERPECPLCR
[3]
  The normalized value in BLU units: 268.5 BLU

## HSTPKPLPPVPALS
[4]
  The normalized value in BLU units (SPOT analysis, Myo5 SH3): 143.5 BLU

## TLHELGVPITPIAF
[3]
  The normalized value in BLU units: 118.6 BLU

## ELQIRYKPTPPLKK
[2]
  The normalized value in BLU units: 171.0 BLU

## AADWYEVPKVPLSA
[3]
  The normalized value in BLU units: 275.4 BLU

## IAEWKNDPNNPNFE
[2]
  The normalized value in BLU units: 91.1 BLU

## EYSPRPSPWLPSKP
[2]
  The normalized value in BLU units: 73.7 BLU

## NSVIRGCPGLPDTL
[4]
  The normalized value in BLU units (SPOT analysis, Myo5 SH3): 150.8 BLU

## AGQERFAPLAPMYY
[2]
  The normalized value in BLU units: 100.8 BLU

## SKDKKTKPTPPPKP
[2]
  The normalized value in BLU units: 179.5 BLU

## QATGRRGPAPPPPP
[4]
  The normalized value in BLU units (SPOT analysis, Myo5 SH3): 607.2 BLU

## QSKTKPLPVEPASP
[2]
  The normalized value in BLU units: 122.1 BLU

## IPVGYVTPKFPSLY
[3]
  The normalized value in BLU units: 21.6 BLU

## GTTNRGPPPLPPRA
[4]
  The normalized value in BLU units (SPOT analysis, Myo5 SH3): 39858.8 BLU

## HLVRKVAPTKPMYC
[4]
  The normalized value in BLU units (SPOT analysis, Myo5 SH3): 477.5 BLU

## APPPKEEPAAPTST
[2]
  The normalized value in BLU units: 116.7 BLU

## YAVGRIVPDSPTYD
[4]
  The normalized value in BLU units (SPOT analysis, Myo5 SH3): 189.3 BLU

## TLIEYMGPAPPKGS
[1]
  The normalized value in BLU units (SPOT analysis, Myo5 SH3): 133.3 BLU

## QFQKLVPPTLPENV
[3]
  The normalized value in BLU units: 153.9 BLU

## IPTSHAPPLPPTAP
[3]
  The normalized value in BLU units: 43593.6 BLU

## KDFSKNAPYNPSEV
[2]
  The normalized value in BLU units: 142.6 BLU

## KAALKYHPDKPTGD
[4]
  The normalized value in BLU units (SPOT analysis, Myo5 SH3): 155.5 BLU

## YPNGRTLPPVPTQV
[2]
  The normalized value in BLU units: 172.4 BLU

## FLLKKMFPAPPLPT
[4]
  The normalized value in BLU units (SPOT analysis, Myo5 SH3): 23725.0 BLU

## VFKFLFHPVTPSHF
[3]
  The normalized value in BLU units: 564.7 BLU

## LWRPRIVPILPYIT
[3]
  The normalized value in BLU units: 1051.3 BLU

## PEWRRPHPNIPDAK
[2]
  The normalized value in BLU units: 182.7 BLU

## DFRGRAYPLSPHFN
[4]
  The normalized value in BLU units (SPOT analysis, Myo5 SH3): 785.0 BLU

## VHFYKSLPQGPAPA
[4]
  The normalized value in BLU units (SPOT analysis, Myo5 SH3): 509.7 BLU

## LDSMKNLPLNPSKK
[3]
  The normalized value in BLU units: 268.3 BLU

## ILPPRIVPAIPKKA
[4]
  The normalized value in BLU units (SPOT analysis, Myo5 SH3): 3670.9 BLU

## NFPSLIDPHVPTYG
[3]
  The normalized value in BLU units: 97.4 BLU

## GKDHRLAPNGPGMH
[4]
  The normalized value in BLU units (SPOT analysis, Myo5 SH3): 217.5 BLU

## WLSKLVLPPPPVSI
[1]
  The normalized value in BLU units (SPOT analysis, Myo5 SH3): 4130.6 BLU

## HAEAFEDPSIPRIS
[3]
  The normalized value in BLU units: 324.6 BLU

## WFILKLFPHEPIEG
[2]
  The normalized value in BLU units: 1272.7 BLU

## GFLSKKVPNTPVVV
[2]
  The normalized value in BLU units: 71.3 BLU

## TKAKKEKPKPPKPI
[3]
  The normalized value in BLU units: 157.7 BLU

## APLLYSCPSEPMAY
[3]
  The normalized value in BLU units: 83.1 BLU

## GTGRRRSPSTPIMP
[2]
  The normalized value in BLU units: 921.0 BLU

## MANILYYPQKPLGT
[1]
  The normalized value in BLU units (SPOT analysis, Myo5 SH3): 152.5 BLU

## EFLRKHSPKAPATG
[4]
  The normalized value in BLU units (SPOT analysis, Myo5 SH3): 412.8 BLU

## PKKSRVLPPLPFPL
[3]
  The normalized value in BLU units: 3587.4 BLU

## RDDVKRTPFIPESV
[2]
  The normalized value in BLU units: 171.1 BLU

## NLKTKSHPEVPRLD
[4]
  The normalized value in BLU units (SPOT analysis, Myo5 SH3): 362.8 BLU

## PAPPPPPPPPPPP
[1]
  The normalized value in BLU units (SPOT analysis, Myo5 SH3): 53285 BLU

## FQDYRCSPWCPSRS
[4]
  The normalized value in BLU units (SPOT analysis, Myo5 SH3): 263.5 BLU

## PVRCRVLPATPRQI
[4]
  The normalized value in BLU units (SPOT analysis, Myo5 SH3): 1474.0 BLU

## KDEVKLHPPEPKDL
[2]
  The normalized value in BLU units: 163.7 BLU

## PPQTHQSPPPPPQQ
[1]
  The normalized value in BLU units (SPOT analysis, Myo5 SH3): 222.2 BLU

## QELPRAIPVMPFVD
[2]
  The normalized value in BLU units: 118.1 BLU

## GLDALNIPHKPKQL
[1]
  The normalized value in BLU units (SPOT analysis, Myo5 SH3): 167.1 BLU

## NSGEKIYPQEPPIS
[3]
  The normalized value in BLU units: 111.7 BLU
